The numbers were not newly measured in PMC3850926, “Evaluation of the adverse event profile and pharmacodynamics of toceranib phosphate administered to dogs with solid tumors at doses below the maximum tolerated dose” (BMC Veterinary Research, 2013), which cites them from elsewhere.

Data set [1] deals with VEGF. Also noted: method as in PMID 19212818. The settings on record: human patients; return to baseline during rest period; cited from earlier work.
The subject of data set [2] is human cancer patients. Conditions: cited from earlier work.

`CCN(CC)CCNC(=O)c1c(C)[nH]c(/C=C2\C(=O)Nc3ccc(F)cc32)c1C` [sunitinib]: in data set [1], the “circulating endothelial precursors and plasma VEGF during treatment” value is given as “increase over time during treatment”. In data set [2] (human cancer patients), the “incidence of PLN” value was “approximately 2.5%”. For the same compound, the “hypertension classified as grade 3” value in data set [2] (human patients with RCC) is given as 8%. In addition, in data set [2] (human patients with renal cell carcinoma (RCC)), the “patients that developed hypertension” value is on record as 24%.
